From US5770624A, “Certain alpha-substituted arylsulfonamido acetohydroxamic acids” (priority 1996, dated 1998)
Structures can show the parent of a compound that is named as a salt.

How the values were obtained:
[1] = molecular target: T1, Human recombinant fibroblast collagenase (Homo sapiens, UniProt P03956); assay: Collagenase activity (digestion of bovine type I collagen); format: biochemical; conditions: 2 hours at 35° C., read-out: IC50 for inhibition of collagenase activity
T1 sequence (P03956 100-469): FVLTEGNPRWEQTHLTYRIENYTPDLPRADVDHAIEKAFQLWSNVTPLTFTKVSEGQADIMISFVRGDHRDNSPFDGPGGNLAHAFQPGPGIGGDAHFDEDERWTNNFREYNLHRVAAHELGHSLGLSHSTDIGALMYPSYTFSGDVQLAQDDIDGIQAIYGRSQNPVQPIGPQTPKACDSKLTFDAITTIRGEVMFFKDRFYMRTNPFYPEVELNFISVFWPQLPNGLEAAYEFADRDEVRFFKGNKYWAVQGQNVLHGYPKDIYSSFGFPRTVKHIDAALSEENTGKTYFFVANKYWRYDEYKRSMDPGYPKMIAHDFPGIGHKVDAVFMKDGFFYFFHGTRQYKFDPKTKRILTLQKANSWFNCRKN
Method: Collagenase activity is determined as follows: ninety six-well, flat-bottom microtiter plates are first coated with bovine type I collagen (35 ug/well) over a two-day period at 30° C. using a humidified and then dry atmosphere; plates are rinsed, air dried for 34 hours, sealed with Saran wrap and stored in a refrigerator. Human recombinant fibroblast collagenase and a test compound (or buffer) are added to wells (total volume =0.1 ml) and plates are incubated for 2 hours at 35° C. under humidified conditions; the amount of collagenase used per well is that causing approximately 80% of maximal digestion of collagen. The incubation media are removed from the wells, which are then rinsed with buffer, followed by water. Coomasie blue stain is added to the wells for 25 minutes, removed, and wells are again rinsed with water. Sodium dodecyl sulfate (20% in 50% dimethylformamide in water) is added to solubilize the remaining stained collagen and the optical density at 570 nm wave length is measured. The decrease in optical density due to collagenase (from that of collagen without enzyme) is compared to the decrease in optical density due to the enzyme in the presence of test compound, and percent inhibition of enzyme activity is calculated. IC50's are determined from a range of concentrations of inhibitors (4-5 concentrations, each tested in triplicate), and Ki values are calculated.

[2] = tested on: TNF-alpha (synovial fluid); assay: Effect on the synovial fluid concentration of TNF-alpha in an inflamed rat knee; format: in vivo, rat (Female lewis); conditions: 50 mg/Kg p.o., dosed 1-4 h before LPS injected into both knees
Method: The effect on the synovial fluid concentration of TNF-alpha in an inflamed rat knee can be determined as follows: Female lewis rats are dosed by gavage with test compound in 0.1 ml cornstarch vehicle. One to four hours after administration of test compound 0.1 mg Lipopolysaccharide from E. coli 0127:B8 (Difco #3880-25-0) is injected into both knees. Two hours after intra-articular LPS injection, knees are lavaged with 0.1 ml saline and 2 lavages from same rat are pooled. TNF-alpha is measured using mouse TNF-alpha ELISA kit (Genzyme) which crossreacts with rat TNF-alpha Results are expressed as % inhibition of mean TNF-alpha concentration in synovial fluid from saline-injected knees.

[3] = tested on: TNF-alpha production by LPS-stimulated THP-1 cells; assay: Effect on the production of soluble TNF-alpha by LPS-stimulated THP-1 cells; format: cell-based; conditions: Homo sapiens, 30 min pre-incubation, 100 ng/ml LPS for 4 hours, ELISA
Method: The effect on the production of soluble TNF-alpha by LPS-stimulated THP-1 cells can be determined as follows: Tissue culture medium used is RPM 1640 (Gibco cat #11875-036) containing 10% fetal calf serum, 1% penicillin and streptomycin. TBP-1 cells (ATCC #202-TIB) at 1×10+5 cells/well are added to 100 μl medium or test compound. Cells are pre-incubated with compound for 30 minutes in a 37° C. humidified chamber with 5% CO2 and then stimulated with 100 ng/ml of LPS (Sigma cat #L-4391) for 4 hours. Plates are then centrigued and […] of conditioned medium for TNF analysis is harvested. The amount of TNF-alpha in control and test cultures is determined by ELISA using recombinant TNF-alpha for the standard curve, using TNF ELISA plates (Genzyme) for TNF analysis. Absorbance readings and data calculations are performed on a Molecular Devices plate reader. Results are expressed in IC50 's of test compound.

[4] = molecular target: T2, recombinant human stromelysin (Homo sapiens, UniProt P08254); assay: Inhibition of stromelysin activity (hydrolysis of Substance P); format: biochemical; conditions: 30 min at 37° C.
T2 construct: recombinant human stromelysin (mol. wt. 45-47 kDa, 2 Units)
Method: One test to determine the inhibition of stromelysin activity is based on its hydrolysis of Substance P using a modified procedure of Harrison et al (Harrison, […]., and Stein R., A semicontinuous, high performance chromatography based assay for stromelysin, Anal. Biochem. 18, 110-113 (1989)). In this assay, Substance P is hydrolyzed by recombinant human stromelysin to generate a fragment, Substance P 7-11, which can be quantitated by HPLC. In a typical assay, a 10 mM stock solution of a compound to be tested is diluted in the assay buffer to 50 μM, mixed 1:1 with 8 μg recombinant human stromelysin (mol. wt. 45-47 kDa, 2 Units; where 1 Unit produces […] of Substance P 7-11 in 30 minutes) and incubated along with 0.5 mM Substance P in a final volume of 0.125 ml for 30 minutes at 37° C. The reaction is stopped by adding 10 mM EDTA and Substance P 7-11 is quantified on RP-8 HPLC. The IC50 for inhibition of stromelysin activity and Ki are calculated from control reaction without the inhibitor.

[5] = tested on: collagen-II induced arthritis in mice; assay: Collagen II induced arthritis model in mice; format: in vivo; conditions: mouse, 100 mg/Kg p.o.
Source text: Antiinflammatory activity can be determined in standard inflammation and arthritic animal models well-known in the art, e.g. the adjuvant arthritis model in rats and the collagen II induced arthritis model in mice [Mediators of […]. 1, 273-279 (1992)].

[6] = tested on: TNF-alpha (plasma); assay: Effect on the plasma concentration of TNF-alpha in the mouse following intravenous injection of endotoxin; format: in vivo, mouse (Female Balb-CbyJ); conditions: about 50 mg/Kg p.o., dosed 1-4 h before 0.1 mg/kg LPS i.v.
Method: The effect on the plasma concentration of TNF-alpha in the mouse following intravenous injection of endotoxin can be determined as follows:
Female Balb-CbyJ mice are dosed by gavage with test compound in 0.1 ml cornstarch vehicle/10 grams body weight. One to four hours after administration of test compound, 0.1 mg/kg Lipopolysaccharide from E. coli 0127:B8 (Difco #3880-25-0) in saline is injected i.v. One hour after i.v. injection of LPS, blood is collected for determination of plasma TNF-alpha using mouse TNF-alpha ELISA kit (Genzyme). Eight mice are used per treatment group. Results are expressed as % inhibition of mean TNF-alpha concentration in control mice.

T2 sequence (P08254 100-477): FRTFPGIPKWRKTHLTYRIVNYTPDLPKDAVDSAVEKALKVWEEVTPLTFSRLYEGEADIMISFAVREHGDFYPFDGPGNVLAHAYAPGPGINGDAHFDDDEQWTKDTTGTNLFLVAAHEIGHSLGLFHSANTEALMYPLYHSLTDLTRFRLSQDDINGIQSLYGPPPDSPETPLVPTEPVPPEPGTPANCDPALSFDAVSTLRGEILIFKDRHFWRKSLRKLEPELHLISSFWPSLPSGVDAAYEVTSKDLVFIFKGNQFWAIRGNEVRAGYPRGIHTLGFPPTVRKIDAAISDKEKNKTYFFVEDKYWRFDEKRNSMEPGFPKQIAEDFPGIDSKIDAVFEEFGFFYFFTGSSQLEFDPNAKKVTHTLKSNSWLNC

SMILES	IC50 [1] [nM]	reduction of TNF-α concentration in the synovial fluid [2]	IC50 [3] [nM]	IC50 [4] [nM]	inhibition of collagen-II induced arthritis in mice [5]	% inhibition of mean plasma TNF-alpha concentration in control mice [6] [%]
CCCO[C@H]1CC[C@H]([C@H](C(=O)NO)N(Cc2ccncc2)S(=O)(=O)c2ccc(OCC)cc2)CC1.Cl [2(u), N-hydroxy-2(R)-[(4ethoxybenzenesulfonyl)(4-picolyl)amino]-2-(trans-4-propoxycyclohexyl)acetamide hydrochloride]	~45	~98%	~2500	~11	effective in inhibiting collagen-II induced arthritis	–
CCCO[C@H]1CC[C@H]([C@H](C(=O)NO)N(Cc2ccncc2)S(=O)(=O)c2ccc(OC)cc2)CC1 [Example 1, hydrochloride]	~80	about 70%	~2500	~16	effective in inhibiting collagen-II induced arthritis	50
